This experiment has as its system M. tuberculosis MDR strains M70, M28, M94, M14, TN5904 and H37Rv. The experiment can be described thus: microbe, parasite or virus in culture. It is filed as cell-based, Mycobacterium tuberculosis. As to conditions: for MIC: Mycobacterium tuberculosis, H37RV; for MIC, μg/mL in M. tuberculosis strain: M14: MDR strain M14, MABA assay; for MIC, μg/mL in M. tuberculosis strain: M28: MDR strain M28, MABA assay; for MIC, μg/mL in M. tuberculosis strain: M70: MDR strain M70, MABA assay; for MIC, μg/mL in M. tuberculosis strain: M94: MDR strain M94, MABA assay; for MIC, μg/mL in M. tuberculosis strain: TN5904: MDR strain TN5904, MABA assay; for MIC, μg/mL in M. tuberculosis strain: H37Rv: drug-susceptible strain H37Rv, MABA assay. On the technique in general: The colour change of resazurin is a common sign of viable cells or microbes.

Where [1] appears, read: read-out: MIC, μg/mL in M. tuberculosis strain: M28.
Setting [2] is: read-out: MIC, μg/mL in M. tuberculosis strain: M94.

Converted amounts (≈) assume the structure as drawn. Read-outs that look alike come from different tables or passages of the source.

The text below walks through data of patent publication US20260083674A1, “OXAZOLIDINONE LIPOSOME COMPOSITIONS” (priority 2021, published 2026).

`Cl.Cl.NCCn1nnc(-c2ccc(-c3ccc(N4C[C@H](CN)OC4=O)cc3F)cn2)n1` [AKG-29]: the MIC by setting is: under setting [1], 0.125 µg/mL; under setting [2], 0.125 µg/mL.
Turning to `NNC(=O)c1ccncc1` [INH], the “MIC, μg/mL in M. tuberculosis strain: M14” value (shortened to “MIC, μg/mL … M14”) is over 2 µg/mL; the “MIC, μg/mL in M. tuberculosis strain: M28” value (“MIC, μg/mL … M28” below) is over 2 µg/mL; the “MIC, μg/mL in M. tuberculosis strain: M70” value (from here on “MIC, μg/mL … M70”) is over 2 µg/mL; the “MIC, μg/mL in M. tuberculosis strain: M94” value is over 2 µg/mL. The “MIC, μg/mL in M. tuberculosis strain: TN5904” value (shortened to “MIC, μg/mL … TN5904”) was 2 µg/mL (≈ 14.6 µM) and the “MIC, μg/mL in M. tuberculosis strain: H37Rv” value (shortened to “MIC, μg/mL … H37Rv”) came to 0.06 µg/mL (≈ 0.438 µM).
As to `COc1c(N2C[C@@H]3CCCN[C@@H]3C2)c(F)cc2c(=O)c(C(=O)O)cn(C3CC3)c12` [MOX], the MIC under setting [2] stood at 0.125 µg/mL (≈ 0.311 µM).
As to `CO[C@H]1/C=C/O[C@@]2(C)Oc3c(C)c(O)c4c(O)c(c(/C=N/N5CCN(C)CC5)c(O)c4c3C2=O)NC(=O)/C(C)=C\C=C\[C@H](C)[C@H](O)[C@@H](C)[C@@H](O)[C@@H](C)[C@H](OC(C)=O)[C@@H]1C` [RIF], the “MIC, μg/mL … M14” value is 0.06 µg/mL (≈ 0.0729 µM); the “MIC, μg/mL … M28” value was over 8 µg/mL; the “MIC, μg/mL … M70” value was over 8 µg/mL; the “MIC, μg/mL … TN5904” value was over 8 µg/mL. Also, the “MIC, μg/mL … H37Rv” value is 0.06 µg/mL (≈ 0.0729 µM).
`Cn1nnc(-c2ccc(-c3ccc(N4C[C@H](CN)OC4=O)cc3F)cn2)n1` [AKG-3]: the MIC runs as follows: under setting [1], 0.06 µg/mL (≈ 0.162 µM); under setting [2], 0.06 µg/mL (≈ 0.162 µM).
Turning to `CC(=O)NC[C@H]1CN(c2ccc(-c3ccc(-c4nnn(CCN(C)C)n4)nc3)c(F)c2)C(=O)O1` [AKG-38], for the setting “read-out: MIC, μg/mL in M. tuberculosis strain: TN5904”, the MIC was found to be 0.03 µg/mL (≈ 0.064 µM).
With `CN[C@@H]1[C@H](O[C@H]2[C@H](O[C@H]3[C@H](O)[C@@H](O)[C@H](N=C(N)N)[C@@H](O)[C@@H]3N=C(N)N)O[C@@H](C)[C@]2(O)C=O)O[C@@H](CO)[C@H](O)[C@H]1O` [STR], the “MIC, μg/mL … M14” value was over 8 µg/mL; the “MIC, μg/mL … M28” value came to 0.125 µg/mL (≈ 0.215 µM); the “MIC, μg/mL … M70” value amounted to 2 µg/mL (≈ 3.44 µM); the “MIC, μg/mL in M. tuberculosis strain: M94” value is over 8 µg/mL. The “MIC, μg/mL … TN5904” value came to 1 µg/mL (≈ 1.72 µM) and the “MIC, μg/mL … H37Rv” value was determined as 0.5 µg/mL (≈ 0.86 µM).
